# Reference: patent publication US12577273B2, “Small molecule modulators of gut bacterial bile acid metabolism” (priority 2019, dated 2026)
# Where “and” joins values, the source holds several entries; their conditions need not be identical. Identical values can stand only once. Entries after “also recorded” stand apart in the source; their conditions may differ. Like-named read-outs stand apart in the source and are kept apart here.
# Key:
# C57BL/6 mice = format: in vivo, mouse; details: single gavage 10 mg/kg; for BSH activity in feces: 1 day and 1.5 days post-gavage
# Description: Mice were split into two groups of four mice each and were gavaged with either 200 μL of corn oil containing 5% DMSO (vehicle group) or with 200 μL of corn oil containing 7 at a concentration of 1.25 mg/mL (experimental group). For the fecal pellet collection, each mouse was transferred to a temporary cardboard cage for a few minutes until it defecated.
# Quantification of Bile Acids in Tissues and Plasma.
# Determination of Microbial Biomass by Plating. Frozen fecal pellets were used to determine colony forming units (CFU/g). Feces were suspended in PBS buffer in an anaerobic chamber. Serial dilutions were plated on CHG agar plates (see “Bacterial Culturing”) and incubated at 37° C.
# Isolation of Fecal Bacterial Microbiota and 16S rRNA Gene Sequencing Analysis. Mouse fecal microbiota DNA was isolated by using ZymoBIOMICS 96 DNA Kit (ZymoBIOMICS™) according to the manufacturer's instructions. […]
# Gel electrophoresis was used to check the success of PCR amplification. The concentration of the PCR product was measured by the Quan-IT dsDNA high sensitivity assay. ˜120 ng of DNA of each PCR product was pooled together to generate an aggregated library for downstream processing. PCR DNA amplicons between 300-500 bp were selected from the aggregated library on a targeted size selection platform (pippin prep 1.5% agarose cassette from Sage Sciences) according to the manufacturer's instructions. The size of DNA amplicons was characterized on an Agilent Technologies 2100 bioanalyzer trace. DNA concentration of the aggregated library was measured by the Quant-IT dsDNA high sensitivity assay. […] 600 ul of the denatured and diluted library with 20% phiX spike-in (120 ul, 7.5 pM of phiX) was loaded onto the MiSeq V2 reagent cartridge (Illumina) and was sequenced with paired-end 250 bp reads using the custom primers described above. […] The resulting FASTQ sequences were then quality-filtered and analyzed by following QIIME_mothur_DADA2.^56-59 Operational Taxonomic Units (OTUs) were picked with 97% sequence similarity. […]
# B. adolescentis = assay: Inhibitor screen in bacteria, B. adolescentis culture; format: cell-based, Bifidobacterium adolescentis L2-32; details: FIG. 2c, 100 μM inhibitor, 100 μM bile acid pool, 21 h, replicates 1-3
# B. theta BSH = B. theta BSH (Bacteroides thetaiotaomicron, UniProt Q8A600); assay: Mass spectrometry analysis for identifying labeled residue on BSH; format: binding
# Description: Mass Spectrometry Analysis for Identifying Labeled Residue on BSH. BSH protein was incubated with DMSO or a 10-fold molar excess of inhibitor 7 for 2 h at room temperature. Reactions were then analyzed by LC-MS using a Shimadzu LC and autosampler system (Shimadzu, Marlborough, MA) interfaced to an LTQ ion trap mass spectrometer (ThermoFisher Scientific, San Jose, CA).
# To determine the site of modification, compound 7 modified protein was analyzed as described above, except that the LC system was interfaced to an Orbitrap Lumos Mass Spectrometer (ThermoFisher Scientific). […] Ion assignments were performed using mzStudio software.^50
# [1] = tested on: BSH activity in conventional mouse feces; assay: Screen of inhibitors in conventional mouse feces; format: biochemical; details: 20 μM inhibitor, 30 min, then GCDCA-d4 100 μM, 18 hours
# Description: Screen of Inhibitors in Conventional Mouse Feces. […] The tubes were then frozen in dry ice for 5 mins and upon thawing were diluted with an equal volume of methanol. […] The supernatant was removed into a clean eppendorf tube and centrifuged again. […] The concentration of product detected from these assays was reported directly.
# L. plantarum = assay: Inhibitor screen in bacteria, L. plantarum culture; format: cell-based, Lactobacillus plantarum WCFS1; details: FIG. 2c, L. plantarum culture; 100 μM inhibitor, 100 μM bile acid pool, 21 h; replicates 1-3
# B. vulgatus = assay: Inhibitor screen in bacteria, B. vulgatus culture; format: cell-based, Bacteroides vulgatus ATCC 8482; details: FIG. 2c, 100 μM inhibitor, 100 μM bile acid pool, 21 h, replicates 1-3
# Description: Bacterial Culturing. All bacterial strains were cultured at 37° C. in Cullen-Haiser Gut (CHG) media (which consists of brain heart infusion media (Bacto™ BHI, BD) supplemented with 1% BBL vitamin K1-hemin solution (BD), 1% trace minerals solution (ATCC), 1% trace vitamins solution (ATCC), 5% fetal bovine serum (Hyclone), 1 g/L cellubiose, 1 g/L maltose, and 1 g/L fructose) or BHI^+ (Bacto™ BHI, BD, supplemented with 5 mg/L hemin, and 2.5 uL/L Vitamin K1). All strains were grown under anaerobic conditions in a anaerobic chamber (Coy Lab Products Airlock) with a gas mix of 5% hydrogen and 20% carbon dioxide nitrogen. Escherichia coli was grown aerobically at 37° C. in LB medium supplemented with ampicillin to select for the pET21b plasmid.
# Inhibitor Screen in Bacteria. Bacterial cultures were diluted to OD600 of 0.1 in 4 mL BHI^+, containing 100 μM taurine conjugated bile acid pool 100 μM inhibitors. […] After 21 h, serial dilutions were plated on BHI^+ agar to determine cell viability (CFU/mL). […] The cultures were spun down in a centrifuge at 2,500 g for 5 mins to obtain better separation. The organic layer was then removed and the aqueous layer was extracted again using 2 mL of ethyl acetate.
compound,measurement,setting,value
C[C@H](CCC(=O)CF)[C@H]1CC[C@H]2[C@@H]3[C@H](O)C[C@@H]4C[C@H](O)CC[C@]4(C)[C@H]3CC[C@]12C [Compound 7],BSH activity in feces,C57BL/6 mice; 10 mg/kg,significant decrease in BSH activity in feces
same,BSH activity in feces,"C57BL/6 mice; listed as compound 7, 10 mg/kg",significantly lower
same,fecal deoxycholic acid (DCA),C57BL/6 mice; 1 day post-gavage,a decrease in the deconjugated secondary bile acid deoxycholic acid (DCA) was observed
same,% deconjugation of TCA,B. adolescentis,2.88% and 3.09% and 2.93%
same,% deconjugation of TDCA,B. adolescentis,10.43% and 6.05% and 7.35%
same,% deconjugation of TUDCA,B. adolescentis,1.54% and 1.26% and 1.21%
same,% deconjugation of TβMCA,B. adolescentis,0.34% and 0.37% and 0.73%
same,modified residue of B. theta BSH (top-down MS),B. theta BSH; 10-fold excess of compound 7,Cys2
same,shift in mass of BSH after treatment,"B. theta BSH; 10-fold excess of compound 7, 2 h",388 Da
same,shift in the intact mass of the protein,B. theta BSH; incubation of B. theta BSH with compound 7,388 mass units
same,BSH activity in resuspended conventional mouse feces (in words),[1],completely inhibited BSH activity in feces
same,BSH activity in resuspended conventional mouse feces (in words),[1]; listed as compound 7,effectively inhibited BSH activity; also recorded: completely inhibited the BSH activity in feces; also recorded: almost completely inhibited BSH activity
same,% deconjugation of TCA,L. plantarum,0.77% and 0.93% and 1.02%
same,% deconjugation of TDCA,L. plantarum,3.22% and 0.62% and 0.64%
same,% deconjugation of TUDCA,L. plantarum,1.46% and 0.97% and 1.32%
same,% deconjugation of TβMCA,L. plantarum,0.15% and 0.49% and 0.62%
same,% deconjugation of TCA,B. vulgatus,0.68% and 0.64% and 0.47%
same,% deconjugation of TDCA,B. vulgatus,0.90% and 0.17% and 0.81%
same,% deconjugation of TUDCA,B. vulgatus,1.90% and 3.62% and 0.80%
same,% deconjugation of TβMCA,B. vulgatus,1.58% and 0.41% and 0.65%
